Laboratory results reported in patent US20210138055A1, “COMPOSITIONS, METHODS AND USES FOR MODULATING THE TUMOR MICROENVIRONMENT TO ENHANCE ANTITUMOR IMMUNITY” (COLORADO STATE UNIVERSITY RESEARCH FOUNDATION, priority 2018, published 2021).

System: monocytes from healthy dogs
Assay: Monocyte migration inhibition in vitro
Settings: at relevant serum concentrations (levels achieved by oral dosing); compared to positive and negative controls; FIG. 4

Structure (SMILES) | monocyte migration inhibitory activity
CCCCc1nc(Cl)c(CO)n1Cc1ccc(-c2ccccc2-c2nn[nH]n2)cc1 [losartan] | significant inhibitory activity
CC(C)NCC(O)COc1cccc2ccccc12 (centres unmarked) [propranolol] | significant inhibitory activity
